As a reminder, the IC50 is the concentration at which inhibition is half-maximal.

The results in this text go back to patent US9278996B2, “Dolastatin-10 derivative, method of producing the same and anticancer drug composition containing the same” (CELLTRION, INC., priority 2012, dated 2016).

The subject of this assay is breast cancer (BT-474). Description: Anticancer activity assay (WST-8 cell growth), BT-474. Particulars: Homo sapiens, BT-474, 96 h, read-out: IC50 (nM) BT-474. The class given is cell-based. On the procedure:
The compounds of the present invention were assayed for inhibitory activity against 7 cancer cell lines as breast cancer (BT-474), human epithelial cancer (A-431), non-small cell lung cancer (NCI-H460), colon cancer (HT-29), colon cancer (SW-620), breast cancer (MDA-MB-231) and breast cancer (MCF-7).
Briefly, a suspension of each cancer cell line was serially diluted, and plated at a density of 2˜3×10^3 cells/well into 96-well microplates, followed by incubation at 37° C. for 4 day in a 5% CO2 atmosphere. Cell growth in a monolayer was measured using WST-8 reagemt (Dojindo, Japan).
IC50 values of the compounds against the cancer cell lines were calculated as compound concentrations at which the cells were grown by 50% OD of the control.

Regarding `CC[C@H](C)[C@@H]([C@@H](CC(=O)N1C[C@H](OC)C[C@H]1[C@H](OC)[C@@H](C)C(=O)N[C@H](C)C(N)c1ccccc1)OC)N(C)C(=O)[C@@H](NC(=O)[C@H](C(C)C)N(C)C)C(C)C` (mixture of isomers) [Compound I-36, (2S)—N-((3R,4S)-1-((2S)-2-((1R,2R)-3-(((2R)-1-amino-1-phenylpropan-2-yl)amino)-1-methoxy-2-methyl-3-oxopropyl)-4-methoxypyrrolidin-1-yl)-3-methoxy-5-methyl-1-oxoheptan-4-yl)-2-((S)-2-(dimethylamino)-3-methylbutaneamido)-N,3-dimethylbutanamide], the IC50 is 0.51 nM.

`CC[C@H](C)[C@@H]([C@@H](CC(=O)N1C[C@H](OC)C[C@H]1[C@H](OC)[C@@H](C)C(=O)N[C@@H](C)C(N)c1ccccc1)OC)N(C)C(=O)[C@@H](NC(=O)[C@H](C(C)C)N(C)C)C(C)C` (mixture of isomers) [Compound I-37, (2S)—N-((3R,4S)-1-((2S,4R)-2-((1R,2R)-3-(((2S)-1-amino-1-phenylpropan-2-yl)amino)-1-methoxy-2-methyl-3-oxopropyl)-4-methoxypyrrolidin-1-yl)-3-methoxy-5-methyl-1-oxoheptan-4-yl)-2-((S)-2-(dimethylamino)-3-methylbutaneamido)-N,3-dimethylbutanamide]: the IC50 was 2.82 nM.

On to `CC[C@H](C)[C@@H]([C@@H](CC(=O)N1C[C@H](OC)C[C@H]1[C@H](OC)[C@@H](C)C(=O)N[C@H](C)C(=O)c1ccccc1)OC)N(C)C(=O)[C@@H](NC(=O)[C@@H](NC)C(C)C)C(C)C` (stereo in doubt) [Compound I-6, (2 S)—N-((3R,4S)-3-methoxy-1-((2R,4R)-4-methoxy-2-((1R,2R)-1-methoxy-2-methyl-3-oxo-3-(((R)-1-oxo-1-phenylpropan-2-yl)amino)propyl)pyrrolidin-1-yl)-5-methyl-1-oxoheptan-4-yl)-N,3-dimethyl-2-((S)-3-methyl-2-(methylamino)butaneamido)butanamide], for which the IC50 stood at 0.32 nM.

As for `CC[C@H](C)[C@@H]([C@@H](CC(=O)N1C[C@H](OC)C[C@@H]1[C@H](OC)[C@@H](C)C(=O)NCCc1c(F)cccc1F)OC)N(C)C(=O)[C@@H](NC(=O)[C@@H](NC)C(C)C)C(C)C` [Compound I-1, (S)—N-((3R,4S,5S)-1-((2R,4R)-2-((1R,2R)-3-((2,6-difluorophenethyl)amino)-1-methoxy-2-methyl-3-oxopropyl)-4-methoxypyrrolidin-1-yl)-3-methoxy-5-methyl-1-oxoheptan-4-yl)-N,3-dimethyl-2-((S)-3-methyl-2-(methylamino)butaneamido)butanamide], the IC50 stood at 0.12 nM.

`CC[C@H](C)[C@@H]([C@@H](CC(=O)N1C[C@H](OC)CC1[C@H](OC)[C@@H](C)C(=O)NCCc1cccc(F)c1)OC)N(C)C(=O)[C@@H](NC(=O)[C@@H](NC)C(C)C)C(C)C` (stereo partly drawn) [Compound I-2]: the IC50 turned out to be 0.7 nM.

For `CC[C@H](C)[C@@H]([C@@H](CC(=O)N1C[C@H](OC)C[C@H]1[C@H](OC)[C@@H](C)C(=O)N[C@@H](C)C(=O)c1ccccc1)OC)N(C)C(=O)[C@@H](NC(=O)[C@@H](NC)C(C)C)C(C)C` [Compound I-7, (2 S)—N-((3R,4S)-3-methoxy-1-((2S,4R)-4-methoxy-2-((1R,2R)-1-methoxy-2-methyl-3-oxo-3-(((S)-1-oxo-1-phenylpropan-2-yl)amino)propyl)pyrrolidin-1-yl)-5-methyl-1-oxoheptan-4-yl)-N,3-dimethyl-2-((S)-3-methyl-2-(methylamino)butaneamido)butanamide], the IC50 was 0.62 nM.

Take `CC[C@H](C)[C@@H]([C@@H](CC(=O)N1C[C@@H](OC)C[C@@H]1[C@H](OC)[C@@H](C)C(=O)NCCc1ccccc1)OC)N(C)C(=O)[C@@H](NC(=O)[C@H](C(C)C)N(C)C)C(C)C` [Compound I-10, (S)-2-((S)-2-(dimethylamino)-3-methylbutaneamido)-N-((3R,4S,5S)-3-methoxy-1-((2R,4S)-4-methoxy-2-((1R,2R)-1-methoxy-2-methyl-3-oxo-3-(phenethylamino)propyl)pyrrolidin-1-yl)-5-methyl-1-oxoheptan-4-yl)-N,3-dimethylbutanamide]: the IC50 was 0.24 nM.

As for `CC[C@H](C)[C@@H]([C@@H](CC(=O)N1C[C@H](OC)C[C@@H]1[C@H](OC)[C@@H](C)C(=O)N[C@H](C)C(=O)c1ccc(F)cc1)OC)N(C)C(=O)[C@@H](NC(=O)[C@@H](NC)C(C)C)C(C)C` [Compound I-11, (S)—N-((3R,4S,5 S)-1-((2R,4R)-2-((1R,2R)-3-(((R)-1-(4-fluorophenyl)-1-oxopropan-2-yl)amino)-1-methoxy-2-methyl-3-oxopropyl)-4-methoxypyrrolidin-1-yl)-3-methoxy-5-methyl-1-oxoheptan-4-yl)-N,3-dimethyl-2-((S)-3-methyl-2-(methylamino)butaneamido)butanamide], the IC50 turned out to be 0.78 nM.

For the molecule `CC[C@H](C)[C@@H]([C@@H](CC(=O)N1C[C@H](OC)C[C@@H]1[C@H](OC)[C@@H](C)C(=O)N[C@H](C)C(=O)c1cccc(OC)c1)OC)N(C)C(=O)[C@@H](NC(=O)[C@@H](NC)C(C)C)C(C)C` [Compound I-14, (S)—N-((3R,4S,5S)-3-methoxy-1-((2R,4R)-4-methoxy-2-((1R,2R)-1-methoxy-3-(((R)-1-(3-methoxyphenyl)-1-oxopropan-2-yl)amino)-2-methyl-3-oxopropyl)pyrrolidin-1-yl)-5-methyl-1-oxoheptan-4-yl)-N,3-dimethyl-2-((S)-3-methyl-2-(methylamino)butaneamido)butanamide], the IC50 worked out at 0.29 nM.

Take `CC[C@H](C)[C@@H]([C@@H](CC(=O)N1C[C@H](OC)C[C@@H]1[C@H](OC)[C@@H](C)C(=O)N[C@H](C)C(=O)c1ccc(OC)cc1)OC)N(C)C(=O)[C@@H](NC(=O)[C@@H](NC)C(C)C)C(C)C` [Compound I-15, (S)—N-((3R,4S,5S)-3-methoxy-1-((2R,4R)-4-methoxy-2-((1R,2R)-1-methoxy-3-(((R)-1-(4-methoxyphenyl)-1-oxopropan-2-yl)amino)-2-methyl-3-oxopropyl)pyrrolidin-1-yl)-5-methyl-1-oxoheptan-4-yl)-N,3-dimethyl-2-((S)-3-methyl-2-(methylamino)butaneamido)butanamide]: the IC50 came out at 0.51 nM.

Regarding `CC[C@H](C)[C@@H]([C@@H](CC(=O)N1C[C@H](OC)C[C@@H]1[C@H](OC)[C@@H](C)C(=O)N[C@@H](C)C(=O)c1cc(F)cc(F)c1)OC)N(C)C(=O)[C@@H](NC(=O)[C@@H](NC)C(C)C)C(C)C` [Compound I-16, (S)—N-((3R,4S,5S)-1-((2R,4R)-2-((1R,2R)-3-(((S)-1-(3,5-difluorophenyl)-1-oxopropan-2-yl)amino)-1-methoxy-2-methyl-3-oxopropyl)-4-methoxypyrrolidin-1-yl)-3-methoxy-5-methyl-1-oxoheptan-4-yl)-N,3-dimethyl-2-((S)-3-methyl-2-(methylamino)butaneamido)butanamide], the IC50 was 0.65 nM.

As for `CC[C@H](C)[C@@H]([C@@H](CC(=O)N1C[C@H](OC)C[C@@H]1[C@H](OC)[C@@H](C)C(=O)N[C@@H](C)C(=O)c1c(F)cccc1F)OC)N(C)C(=O)[C@@H](NC(=O)[C@@H](NC)C(C)C)C(C)C` [Compound I-17, (S)—N-((3R,4S,5S)-1-((2R,4R)-2-((1R,2R)-3-(((S)-1-(2,6-difluorophenyl)-1-oxopropan-2-yl)amino)-1-methoxy-2-methyl-3-oxopropyl)-4-methoxypyrrolidin-1-yl)-3-methoxy-5-methyl-1-oxoheptan-4-yl)-N,3-dimethyl-2-((S)-3-methyl-2-(methylamino)butaneamido)butanamide], the IC50 turned out to be 0.25 nM.

With `CC[C@H](C)[C@@H]([C@@H](CC(=O)N1C[C@H](OC)C[C@@H]1[C@H](OC)[C@@H](C)C(=O)N[C@H](C)C(=O)c1c(F)cccc1F)OC)N(C)C(=O)[C@@H](NC(=O)[C@@H](NC)C(C)C)C(C)C` [Compound I-18, (S)—N-((3R,4S,5S)-1-((2R,4R)-2-((1R,2R)-3-(((R)-1-(2,6-difluorophenyl)-1-oxopropan-2-yl)amino)-1-methoxy-2-methyl-3-oxopropyl)-4-methoxypyrrolidin-1-yl)-3-methoxy-5-methyl-1-oxoheptan-4-yl)-N,3-dimethyl-2-((S)-3-methyl-2-(methylamino)butaneamido)butanamide], the IC50 is 0.88 nM.

In the case of `CC[C@H](C)[C@@H]([C@@H](CC(=O)N1C[C@H](OC)C[C@@H]1[C@H](OC)[C@@H](C)C(=O)N[C@H](C)/C(=N\O)c1cccc(OC)c1)OC)N(C)C(=O)[C@@H](NC(=O)[C@@H](NC)C(C)C)C(C)C` [Compound I-19, (S)—N-((3R,4S,5 S)-1-((2R,4R)-2-((1R,2R)-3-(((R,Z)-1-(hydroxyimino)-1-(3-methoxyphenyl)propan-2-yl)amino)-1-methoxy-2-methyl-3-oxopropyl)-4-methoxypyrrolidin-1-yl)-3-methoxy-5-methyl-1-oxoheptan-4-yl)-N,3-dimethyl-2-((S)-3-methyl-2-(methylamino)butaneamido)butanamide], the IC50 was 0.09 nM.

`CC[C@H](C)[C@@H]([C@@H](CC(=O)N1C[C@H](OC)C[C@@H]1[C@H](OC)[C@@H](C)C(=O)N[C@H](C)C(=NO)c1cccc(OC)c1)OC)N(C)C(=O)[C@@H](NC(=O)[C@H](C(C)C)N(C)C)C(C)C` [Compound I-20, (S)-2-((S)-2-(dimethylamino)-3-methylbutaneamido)-N-((3R,4S,5S)-1-((2R,4R)-2-((1R,2R)-3-(((R)-1-(hydroxyimino)-1-(3-methoxyphenyl)propan-2-yl)amino)-1-methoxy-2-methyl-3-oxopropyl)-4-methoxypyrrolidin-1-yl)-3-methoxy-5-methyl-1-oxoheptan-4-yl)-N,3-dimethylbutanamide]: the IC50 was 0.47 nM.
